The results in this text go back to patent US20260097047A1, “Small molecule inhibitors of the ribosome biogenesis factor NVL2” (Board of Regents, The University of Texas System, priority 2023, published 2026).

For one assay, the system named is HCT116 NVL^R403W tumors. The experiment in a line: Efficacy study: HCT116 NVL^R403W xenografts. The format is in vivo, mouse. The conditions noted are these: 35 mg/kg IP twice a day for 21 days. The method, then: Having established the kinetics of MM927 mediated NVL inhibition in xenograft tumors, we administered 35 mg/kg MM927 IP twice a day for 21 days to mice harboring tumors derived from either HCT116 NVL wild type or NVL^R403W cells. […] Taken together, we concluded that the potent, and bioavailable analog MM927 reduces tumor growth in mouse xenografts by inhibiting NVL without toxicity.
Efficacy study: Five million parental HCT116 cells or HCT116 NVL^R403W in a volume of 0.1 mL were implanted in the right flank. Tumor volumes were measured every 2 to 4 days with calipers. Volume is calculated as [(L*W^2)*3.14]/6. When volumes reached ˜110 mm^3, treatment was started with 35 mg/kg MM927 or vehicle control (0.2 mL/mouse) twice a day for 21 days. Mice were euthanized at the end of the 21-day treatment period or when any tumor reached 2 cm in its largest diameter, in agreement with the approved animal protocol. At the end of treatment, blood and tumor tissue were collected for pharmacokinetic analysis, measurement of complete blood counts, and blood chemistry measurements as described. Serum alanine transaminase and blood urea nitrogen were analyzed using VITROS MicroSlide technology.

Another assay deals with 60S biogenesis. Description: SNAP-tag labeling of existing and newly synthesized eL36 (60S) and eS17 (40S). The settings on record: 24 hours. The format is cell-based, human. The text has this: The observed reduction in free 60S using polysome profiling could be the consequence of decreased 60S synthesis or accelerated 60S degradation, or a combination of the two. To distinguish between existing and newly synthesized 60S, we engineered HCT116 cells to express a C-terminal SNAP-tag on eL36, a ribosomal protein incorporated into the 60S subunit prior to NVL binding (39) or a control C-terminal SNAP-tag on a component of the small ribosomal subunit, eS17, to monitor 40S biogenesis (40). We first labeled existing eL36 or eS17 in cells with an Oregon green benzylguanine (green). Then, we treated cells for 24 hours with either vehicle or MM017 before adding a 647-SiR benzylguanine to label the pool of proteins synthesized over the 24-hour period and evaluated each polysome profile fraction for either existing or new proteins. […] MM017 treatment had no impact on the levels or fractionation pattern of existing eL36-SNAP.
Next, we examined the impact of MM017 on the subcellular localization of eL36-SNAP (60S) or eS17-SNAP (40S). As expected for mature ribosomes, existing eL36-SNAP was nearly completely cytoplasmic, and treatment with MM017 had no impact on its localization. In vehicle treated cells, newly synthesized eL36-SNAP was both nucleolar and cytoplasmic, reflecting its presence in pre-60S and mature ribosomes. […]

In assay [1] the test system is 60S, 80S and 40S ribosomal subunits. Description: Polysome profiling. The format is cell-based, human. The text has this:
NVL2 in yeast is essential for 60S ribosomal maturation, and therefore, we hypothesized that MM017 might decrease 60S ribosome synthesis. To test this hypothesis, we subjected either parental or NVL mutant cells treated with MM017 for different time points to polysome profiling. Polysome profiling uses a sucrose gradient to fractionate the complete ribosome (80S) from its components, the large (60S) and small (40S) subunit. […] Since the 80S is a complex of the 40S and 60S ribosomes, fewer 60S ribosomes are expected to result in increased free 40S subunits. All of these changes are the result of binding NVL2 since they were not present in the NVL2^R403W mutant cells. Taken together, these observations indicate that MM017 inhibits NVL2 leading to reduced 60S ribosome.
We next assessed the impact of disrupting NVL on the distribution of ribosomal species using polysome profiling. Addition of Ph-IAA to induce NVL degradation in NVL^AID/AID cells led to a time-dependent reduction in free 60S and 80S levels (based on absorbance at 260 nm) and a concomitant increase in 40S levels. […] The polysome profiles following NVL disruption in HCT116 cells appear similar to those reported in yeast with RIX7 mutations (37) or in human cells overexpressing catalytic mutants of NVL (38).

Take `CC#CCN1C(=O)c2ccc(F)cc2Sc2cc(NC(=O)c3ccc4oc(=O)n(C)c4c3)ccc21` [MM927, N-(10-(But-2-yn-1-yl)-3-fluoro-11-oxo-10,11-dihydrodibenzo[b,f][1,4]thiazepin-7-yl)-3-methyl-2-oxo-2,3-dihydrobenzo[d]oxazole-5-carboxamide]: in the assay with HCT116 NVL^R403W tumors, the “endpoint tumor burden, NVL^R403W” value was “no effect” and the “rate of growth of NVL^R403W tumors” value is “no significant impact”.
`COCCN1C(=O)c2ccccc2Sc2cc(NC(=O)c3ccoc3)ccc21` [MM017]: in the assay on 60S biogenesis, the “effect on 40S subunits (eS17-SNAP)” value is on record as “no impact on 40S subunits”; the “newly synthesized eL36-SNAP in polysome profile fractions” value was “reduced in the 60S, 80S, and polysome fractions”. In addition, the “polysome profile, NVL^P307T cells” value in assay [1] (NVL^P307T) is listed as “no changes in polysome profiles”. Besides, in assay [1] (parental HCT116), the “polysome profile, parental cells” value is “time-dependent decrease in the 60S and 80S ribosomal subunits”.
